Publication PMC9109600 (ACS chemical biology, 2021)

target: T1, Guanine deaminase (GDA) (Homo sapiens, UniProt Q9Y2T3); assay: real-time fluorescence inhibition assay with tzGN as substrate; type: biochemical
T1 sequence (Q9Y2T3 1-454): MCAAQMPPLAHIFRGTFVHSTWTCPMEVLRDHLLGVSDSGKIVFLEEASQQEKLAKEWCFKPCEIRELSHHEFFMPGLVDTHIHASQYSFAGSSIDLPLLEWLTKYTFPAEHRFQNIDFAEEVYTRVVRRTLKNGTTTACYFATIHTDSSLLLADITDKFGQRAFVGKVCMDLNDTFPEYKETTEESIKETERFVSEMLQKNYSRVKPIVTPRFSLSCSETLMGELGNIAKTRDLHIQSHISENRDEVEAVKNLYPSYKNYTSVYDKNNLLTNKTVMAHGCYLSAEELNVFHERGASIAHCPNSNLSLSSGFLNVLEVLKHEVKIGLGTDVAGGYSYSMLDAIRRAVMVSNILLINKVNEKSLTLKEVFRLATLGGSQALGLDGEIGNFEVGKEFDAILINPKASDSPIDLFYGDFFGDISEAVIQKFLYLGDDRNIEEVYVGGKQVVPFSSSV

NC(=O)c1[nH]cnc1N [AICA, 5-aminoimidazole-4-carboxamide] and NC(=O)c1nscc1N [ATCA, 4-aminoisothiazole-3-carboxamide] are within 1.5-fold of each other in IC50: 100 µM for the first, 80 µM for the second.

Work on O=C(O)c1c[nH]cn1 [ICA, 4-imidazolecarboxylic acid] yielded an IC50 of 2000 µM.
